In patent US20050228016A1, “TETRAHYDROQUINOLINES FOR MODULATING THE EXPRESSION OF EXOGENOUS GENES VIA AN ECDYSONE RECEPTOR COMPLEX” (priority 2002, published 2005):

What was measured:
[1] = test system: GAL4 DBD-CfEcR(DEF)/VP16AD-MmRXRE; details: CHO 13B3 clone, 48 h, average of two wells
Summary of the method: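 CHO 13B3 clone stably expressing GAL4 DBD-CfEcR(DEF) and VP16AD-MmRXRE with GAL4 RE-luciferase reporter; ligands from DMSO stocks diluted 300-fold. Luciferase read 48 h after treatment; duplicate wells averaged, fold induction = RLU ligand-treated / RLU DMSO-treated.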

[2] = target: T1, GAL4AaEcR-DEF/VP16HsRXRβ-EF (Aedes aegypti, UniProt P49880); experiment: Transactivation reporter assay, AaEcR based switch (1.4) in NIH3T3 cells; type: cell-based; details: mammalian cells; FIGS. 2-5
T1 construct: expressed in transfected cells; host or cells: mouse NIH3T3 cells
T1 sequence (P49880 405-776 limits assumed): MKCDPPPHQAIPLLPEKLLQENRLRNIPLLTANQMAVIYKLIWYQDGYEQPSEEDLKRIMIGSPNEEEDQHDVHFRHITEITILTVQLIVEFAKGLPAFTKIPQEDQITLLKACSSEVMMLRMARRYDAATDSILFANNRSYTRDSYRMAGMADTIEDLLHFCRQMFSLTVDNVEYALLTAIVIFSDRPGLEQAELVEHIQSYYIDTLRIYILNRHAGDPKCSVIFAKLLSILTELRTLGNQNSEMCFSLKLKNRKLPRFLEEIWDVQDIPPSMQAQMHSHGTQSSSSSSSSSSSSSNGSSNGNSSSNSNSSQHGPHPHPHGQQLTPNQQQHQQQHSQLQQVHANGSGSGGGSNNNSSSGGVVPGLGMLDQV
T1 sequence (P28702 299-533 partner limits assumed): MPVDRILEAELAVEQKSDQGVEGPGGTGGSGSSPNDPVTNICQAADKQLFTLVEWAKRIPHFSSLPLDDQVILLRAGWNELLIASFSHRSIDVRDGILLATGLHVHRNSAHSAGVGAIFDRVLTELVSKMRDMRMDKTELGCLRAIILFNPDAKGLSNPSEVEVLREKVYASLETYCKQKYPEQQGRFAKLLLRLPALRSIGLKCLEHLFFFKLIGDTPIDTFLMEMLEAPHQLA
Experimental: Total relative light units (RLU) are shown.
Twenty μl of lysate were assayed.

With `C[C@H]1C[C@H](Nc2ccc(F)cc2)c2cc(F)ccc2N1C(=O)c1ccc(F)c(C(F)(F)F)c1` (relative stereo) [Compound I-5] the “Fold Induction Average, 13B3V1 Assay 33 μM” value [1] was 1 fold and the “Activity on AaEcR based switches” value [2] was “very active”.
